In article PMC12668310, “High‐Throughput Synthesis and Screening of a Cyanimide Library Identifies Selective Inhibitors of ISG15‐Specific Protease mUSP18” (Angewandte Chemie (International Ed. in English), 2025):

System: cellular ISGylation in EL4 cells
Assay: ISGylation accumulation in mouse IFN-β-stimulated EL4 cells (anti-mISG15 western blot)
Format: cell-based
Details: 4 h treatment; for effect on cellular ISGylation: anti-mISG15 blot
Description: Figure 6 Inhibition of murine USP18 activity in living cells. a) Gel‐based ABPP potency assessment using a Rho‐mISG15ct‐PA probe in HEK293T cells overexpressing Flag‐mUSP18. At 24 h following transfection, cells were incubated with DMSO or increasing concentrations of indicated inhibitors for 4 h, lysed, and treated with Rho‐mISG15ct‐PA probe. Top panel: fluorescence scan. Middle panel: anti‐Flag western blot. Bottom panel: anti‐GAPDH western blot confirms equal loading. b) Accumulation of ISGylation in mouse IFN‐β‐stimulated EL4 cells. At 24 h following mouse IFN‐β treatment, cells were incubated with DMSO or increasing concentrations of indicated inhibitors for 4 h, lysed, and treated with Rho‐mISG15ct‐PA probe. Top panel: anti‐mISG15 western blot. Middle panel: fluorescence scan. Bottom panel: anti‐β‐actin western blot confirms equal loading.
Ultimately, we were interested in whether USP18 inhibitor treatment could result in a relevant phenotype in cells. USP18 is the major deISGylase to remove ISG15 from target proteins, and genetic inactivation of USP18 isopeptidase activity leads to enhanced ISGylation in vivo and in cells.^[ [26] ^] We therefore examined whether the USP18 inhibitors enhance cellular ISGylation. Accordingly, EL4 cells were stimulated with IFN‐β to induce the ISG15 machinery, prior to treatment with the inhibitors. After cell lysis and SDS‐PAGE, ISGylated proteins were stained by immunoblotting with an ISG15 antibody (Figure 6b, top panel). […] To confirm inhibition of endogenous USP18 in these experiments, samples were post‐lysis treated with Rho‐mISG15ct‐PA probe.
Generation of ISGylation and in-cell inhibition assay
Mouse EL4 cells were stimulated with 300 U/mL mouse IFN-β. At 24 hours following stimulation, cells were incubated with indicated compounds at the indicated final concentrations at 37 °C for 4 hours, then washed twice with PBS and harvested for further […]
Activity-based probe labelling
The in-cell inhibition of DUBs and mUSP18 was assessed using activity-based probe labelling assays. In brief, cell pellets were resuspended in HR buffer (50 mM Tris-HCl, 5 mM MgCl 2, 250 mM sucrose, 2 mM TCEP and a Protease inhibitor tablet (Roche), pH 7.4), and lysed by sonication (Bioruptor, Diagenode, high intensity for 10 minutes with an ON/OFF cycle of 30 seconds) at 4°C. 40 μg clarified cell lysate was incubated with Rhodamine-mISG15ct-propargylamide probe[1] (final concentration 1 μM) or Rhodamine-Ubiquitin-propargylamide probe[13] (final concentration 1 μM) at 37 °C for 30 min. Reactions were stopped by the addition of LDS (lithium dodecyl sulfate) sample buffer (Invitrogen Life Technologies, Carlsbad, CA, USA) containing 2.5% β-mercaptoethanol, followed by boiling for 7 minutes.
SDS-PAGE, in-gel fluorescence scanning, and immunoblotting
Samples were resolved on precast Bis-Tris NuPAGE Gels (Invitrogen, including 4-12%, and 10% for different samples) using MOPS buffer (Invitrogen Life Technologies, Carlsbad, CA, USA). For fluorescence scan, labeled enzymes were visualized by in-gel fluorescence using a Typhoon FLA 9500 imaging system (GE Healthcare Life Sciences) (Rhodamine channel for probe, Cy5 channel for protein marker).
For immunoblotting, proteins were transferred to a nitrocellulose membrane (Protan BA85, 0.45 μm, GE Healthcare) at 300 mA for 3 hours. […]

| Structure (SMILES) | concentration of maximum accumulation of ISGylation [µM] | effect on cellular ISGylation |
| --- | --- | --- |
| Cc1cc(C(=O)N[C@H]2C[C@@H]3CN(C#N)C[C@@H]3C2)ccc1C(C)C [BB07CA902] | 10 | significantly elevated cellular ISGylation |
| Cc1cc(C(=O)N[C@H]2C[C@@H]3CN(C#N)C[C@@H]3C2)ccc1Br [BB07CA28] | 10 | significantly elevated cellular ISGylation |
